Measured values taken from US11179397B2, “Imidazopyrimidine derivatives” (Gilead Sciences, Inc., priority 2018, dated 2021).

What was measured:
[1] = molecular target: SHP-2 full length protein (Homo sapiens (Human), UniProt Q06124); test: SHP-2 biochemical DiFMUP pseudosubstrate-fluorogenic assay; conditions: 0.2 nM SHP-2, 1 μM IRS-1 activator peptide, 50 μM DiFMUP; read-out: SHP2 IC50
Method in brief: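 In-house recombinant full-length SHP-2 preincubated 90 min at room temperature with compounds (1:3 series, 10,000–0.005 nM), then DiFMUP substrate added at 50 μM final for 30 min more. Fluorescence normalised to DMSO wells (100%) and IC50 derived by curve fitting.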

NCI-H358 cells = test: NCI-H358 3D tumor spheroid growth inhibition; format: cell-based; conditions: Homo sapiens, NCI-H358, 168 h, 3D spheroids, 7 days, 3D CellTiter Glo; cellular IC50 designated EC50; read-out: H358 EC50
Method in brief: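 Cells seeded at 1000/well in ultra-low-attachment plates at 37 °C, 5% CO2 to form spheroids, then incubated a further 7 days with compounds. Viability by 3D CellTiter Glo luminescence; % inhibition versus DMSO wells, with normalized cellular IC50 reported as EC50.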

IC50 [1] [µM] | EC50 (NCI-H358 cells) [µM] | Structure (SMILES)
0.023 | 0.75 | NC1Cc2ccccc2C12CCN(c1ncc(Sc3cccc(Cl)c3Cl)c3nccn13)CC2 (centres unmarked) [Example 124, 1′-(8-((2,3-dichlorophenyl)thio)imidazo[1,2-c]pyrimidin-5-yl)-2,3-dihydrospiro[indene-1,4′-piperidin]-2-amine]
0.015 | 0.12 | C[C@@H]1OCC2(CCN(c3ncc(Sc4ccnc5cnccc45)c4nccn34)CC2)[C@@H]1N [Example 126, (3S,4S)-8-(8-((1,7-naphthyridin-4-yl)thio)imidazo[1,2-c]pyrimidin-5-yl)-3-methyl-2-oxa-8-azaspiro[4.5]decan-4-amine]
0.03 | 0.27 | C[C@@H]1OCC2(CCN(c3ncc(Sc4ccnc5ccc(C#N)cc45)c4nccn34)CC2)[C@@H]1N [Example 127, 4-((5-((3S,4S)-4-amino-3-methyl-2-oxa-8-azaspiro[4.5]decan-8-yl)imidazo[1,2-c]pyrimidin-8-yl)thio)quinoline-6-carbonitrile]
0.014 | 0.059 | C[C@@H]1OCC2(CCN(c3ncc(Sc4ccnc5cccnc45)c4nccn34)CC2)[C@@H]1N [Example 128, (3S,4S)-8-(8-((1,5-naphthyridin-4-yl)thio)imidazo[1,2-c]pyrimidin-5-yl)-3-methyl-2-oxa-8-azaspiro[4.5]decan-4-amine]
0.01 | 0.15 | C[C@@H]1OCC2(CCN(c3ncc(Sc4cccc5ncccc45)c4nccn34)CC2)[C@@H]1N [Example 129, (3S,4S)-3-methyl-8-(8-(quinolin-5-ylthio)imidazo[1,2-c]pyrimidin-5-yl)-2-oxa-8-azaspiro[4.5]decan-4-amine]
0.0057 | 0.057 | C[C@@H]1OCC2(CCN(c3ncc(Sc4ccnc5[nH]ccc45)c4nccn34)CC2)[C@@H]1N [Example 130, (3S,4S)-8-(8-((1H-pyrrolo[2,3-b]pyridin-4-yl)thio)imidazo[1,2-c]pyrimidin-5-yl)-3-methyl-2-oxa-8-azaspiro[4.5]decan-4-amine]
0.027 | 2.1 | C[C@@H]1OCC2(CCN(c3ncc(Sc4ccnc5[nH]cnc45)c4nccn34)CC2)[C@@H]1N [Example 131, (3S,4S)-8-(8-((3H-imidazo[4,5-b]pyridin-7-yl)thio)imidazo[1,2-c]pyrimidin-5-yl)-3-methyl-2-oxa-8-azaspiro[4.5]decan-4-amine]
0.022 | 0.29 | COc1ccc2nccc(Sc3cnc(N4CCC5(CC4)CO[C@@H](C)[C@H]5N)n4ccnc34)c2c1 [Example 132, (3S,4S)-8-(8-((6-methoxyquinolin-4-yl)thio)imidazo[1,2-c]pyrimidin-5-yl)-3-methyl-2-oxa-8-azaspiro[4.5]decan-4-amine]
0.0054 | 0.014 | Cc1nc(N2CCC3(CC2)Cc2ccccc2[C@H]3N)n2ccnc2c1-c1cccc(Cl)c1Cl [Example 135, (S)-1′-(8-(2,3-dichlorophenyl)-7-methylimidazo[1,2-c]pyrimidin-5-yl)-1,3-dihydrospiro[indene-2,4′-piperidin]-1-amine]
0.0043 | 0.13 | C[C@@H]1OCC2(CCN(c3ncc(Sc4cccc5ccccc45)c4nccn34)CC2)[C@@H]1N [Example 136, (3S,4S)-3-methyl-8-(8-(naphthalen-1-ylthio)imidazo[1,2-c]pyrimidin-5-yl)-2-oxa-8-azaspiro[4.5]decan-4-amine]
0.0017 | 0.015 | N[C@@H]1c2cccnc2CC12CCN(c1ncc(Sc3cccc(Cl)c3Cl)c3nccn13)CC2 [Example 146, (S)-1′-(8-((2,3-dichlorophenyl)thio)imidazo[1,2-c]pyrimidin-5-yl)-5,7-dihydrospiro[cyclopenta[b]pyridine-6,4′-piperidin]-5-amine]
0.0048 | 0.0055 | Nc1nccc(Sc2cnc(N3CCC4(CC3)Cc3ncccc3[C@H]4N)n3ccnc23)c1Cl [Example 147, (S)-1′-(8-((2-amino-3-chloropyridin-4-yl)thio)imidazo[1,2-c]pyrimidin-5-yl)-5,7-dihydrospiro[cyclopenta[b]pyridine-6,4′-piperidin]-5-amine]
0.041 | 0.132 | N[C@H]1c2cccnc2CC12CCN(c1ncc(Sc3cccc(Cl)c3Cl)c3nccn13)CC2 [Example 148, (R)-1′-(8-((2,3-dichlorophenyl)thio)imidazo[1,2-c]pyrimidin-5-yl)-5,7-dihydrospiro[cyclopenta[b]pyridine-6,4′-piperidin]-5-amine]
0.075 | 0.101 | Nc1nccc(Sc2cnc(N3CCC4(CC3)Cc3ncccc3[C@@H]4N)n3ccnc23)c1Cl [Example 149, (R)-1′-(8-((2-amino-3-chloropyridin-4-yl)thio)imidazo[1,2-c]pyrimidin-5-yl)-5,7-dihydrospiro[cyclopenta[b]pyridine-6,4′-piperidin]-5-amine]

Structure (SMILES) | IC50 [1] [µM] | EC50 (NCI-H358 cells) [µM]
N[C@@H]1c2ccccc2CC12CCN(c1ncc(Sc3ccnc4sccc34)c3nccn13)CC2 [Example 138, (S)-1′-(8-(thieno[2,3-b]pyridin-4-ylthio)imidazo[1,2-c]pyrimidin-5-yl)-1,3-dihydrospiro[indene-2,4′-piperidin]-1-amine] | 0.0022 | 0.011
N[C@@H]1c2ccccc2CC12CCN(c1ncc(Sc3ccnc4ccsc34)c3nccn13)CC2 [Example 139, (S)-1′-(8-(thieno[3,2-b]pyridin-7-ylthio)imidazo[1,2-c]pyrimidin-5-yl)-1,3-dihydrospiro[indene-2,4′-piperidin]-1-amine] | 0.0017 | 0.0089
N[C@@H]1c2ccccc2CC12CCN(c1ncc(Sc3cccc4cnsc34)c3nccn13)CC2 [Example 140, (S)-1′-(8-(benzo[d]isothiazol-7-ylthio)imidazo[1,2-c]pyrimidin-5-yl)-1,3-dihydrospiro[indene-2,4′-piperidin]-1-amine] | 0.0026 | 0.018
CSc1ccccc1Sc1cnc(N2CCC3(CC2)Cc2ccccc2[C@H]3N)n2ccnc12 [Example 141, (S)-1′-(8-((2-(methylthio)phenyl)thio)imidazo[1,2-c]pyrimidin-5-yl)-1,3-dihydrospiro[indene-2,4′-piperidin]-1-amine] | 0.0018 | 0.03
CCSc1ccccc1Sc1cnc(N2CCC3(CC2)Cc2ccccc2[C@H]3N)n2ccnc12 [Example 142, (S)-1′-(8-((2-(ethylthio)phenyl)thio)imidazo[1,2-c]pyrimidin-5-yl)-1,3-dihydrospiro[indene-2,4′-piperidin]-1-amine] | 0.004 | 0.06
CC(C)Sc1ccccc1Sc1cnc(N2CCC3(CC2)Cc2ccccc2[C@H]3N)n2ccnc12 [Example 143, (S)-1′-(8-((2-(isopropylthio)phenyl)thio)imidazo[1,2-c]pyrimidin-5-yl)-1,3-dihydrospiro[indene-2,4′-piperidin]-1-amine] | 0.011 | 0.26
N[C@@H]1c2ccccc2CC12CCN(c1ncc(Sc3ccnc4cccnc34)c3nccn13)CC2 [Example 144, (S)-1′-(8-((1,5-naphthyridin-4-yl)thio)imidazo[1,2-c]pyrimidin-5-yl)-1,3-dihydrospiro[indene-2,4′-piperidin]-1-amine] | 0.0036 | 0.0044
N[C@@H]1c2ccccc2CC12CCN(c1ncc(Sc3ccnc4ccccc34)c3nccn13)CC2 [Example 145] | 0.0028 | 0.02
